Measured values taken from patent EP0279458A1, “2-Propyl amine derivatives, processes for their preparation and their use” (GÖDECKE AKTIENGESELLSCHAFT, priority 1987, dated 1988).
Where a name gives a salt, the structure may show the parent alone.

System: Proteinkinase C (PKC)
Assay: Inhibition of PS/DO-mediated protein kinase C activity (32P incorporation into histone H-1)
Type: biochemical, Hühner
Description: Zur Klärung des hemmenden Einflusses der erfindungsgemäßen Verbindungen der allgemeinen Formel I auf die Calcium- und Phospholipid-abhängige Proteinkinase (PKC) wurde diese Enzymaktivität ausgehend von einem Hühnermagenextrakt angereichert. In Anlehnung an in der Literatur beschriebene Reinigungsschritte (J. Biol. Chem. 260, S. 15718-15722, 1985) wurde bei der aus 2 Schritten bestehenden Reinigung die Eigenschaft des Enzyms ausgenutzt, in Anwesenheit von Calcium an Zellmembranen zu binden und durch Calciumchelatoren (EGTA) wieder abgelöst zu werden. Beim 1. Anreicherungsschritt erfolgte die Bindung der PKC an Membranen des Hühnermagenextraktes und im 2. Schritt an sogenannte Inside/Out-Vesikel von Erythrozyten. Nach Ablösung von den Erythrozyten-Membranen und Umpufferung lag die PKC-Präparation in 10 mM HEPES, 1 mM DTT, 0,1% PEG 20000, pH 7,5 vor und konnte unter diesen Bedingungen bei -70°C für mehrere Monate ohne Aktivitätsverlust gelagert werden.
Die Aktivität des Enzyms wurde über den Einbau von Phosphor-32-markiertem Phosphat in das durch PKC phosphorylierbare Protein Histon H-1 bestimmt. Der Test enthält dabei folgende Kumponenten: 50 mM HEPES (pH 7,5), 1 mM DTT, 5 mM MgCl₂, ca. 10 µM freies Ca²⁺, 200 µg/ml Histon, 5 µg/ml Phosphatidylserin, 1 µg/ml 1,2-Diolein, 10 µM ATP, eine jeweils geeignete Menge der PKC-Präparation und gegebenenfalls eine Testsubstanz. Die unter Standardbedingungen gemessene Kinase-Aktivität in Anwesenheit von PKC-Aktivatoren (und ohne Testsubstanz) wurde jeweils als 100% gesetzt und die Hemmwirkung der Verbindungen der allgemeinen Formel I prozentual darauf bezogen.
In Tabelle I ist die Inhibierung von PS/DO [PS: Phosphatidylserin, DO: 1,2-Diolein] vermittelter Proteinkinase C-Aktivität angegeben.

Row | Inhibierung der PS/ DO-vermittelten PKC-Aktivität (%) (konz. 1x10^-4 mol/l, 100 µM) | Inhibierung der PS/ DO-vermittelten PKC-Aktivität (%) (konz. 1x10^-5 mol/l, 10 µM) | Inhibierung der PS/ DO-vermittelten PKC-Aktivität (%) (konz. 1x10^-6 mol/l) | Compound
1 | 104% | 90% | 21% | CCCCCCCCCCCCCCCCCCOCC(COC(=O)c1ccccc1)[N+](C)(C)C (racemic) [Beispiel 4, (±)-1-Benzoyloxy-3-octadecyloxy-2-propyl-trimethylammoniumjodid]
2 | – | 36% | – | CCCCCCCCCCCCCCOCC(COC(C)=O)N(C)C (racemic) [Beispiel 1b, (±)-2-Dimethylamino-3-tetradecyloxy-1-propylacetat Oxalat]
3 | 99% | 91% | 23% | CCCCCCCCCCCCCCCCCCOCC(CO)NCC (racemic) [Beispiel 2, (±)-2-Ethylamino-octadecyloxy-1-propanol · Hydrochlorid]
4 | – | 39% | 12% | CCCCCCCCCCCCCCCCCCSCC(N)CO (racemic) [Beispiel 5, (±)-2-Amino-3-octadecylthio-1-propanol]
5 | – | 23% | – | CCCCCCCCCCCCCCCCOCC(COC(C)=O)N(C)C (racemic) [Beispiel 1a, (±)-2-Dimethylamino-3-hexadecyloxy-1-propylacetat Oxalat]
6 | 100% | 78% | 11% | CCCCCCCCCCCCCCCCCCOCC(CO)N(CC)CC.O=C(O)C(=O)O (racemic) [Beispiel 2a, (±)-2-Diethylamino-3-octadecyloxy-1-propanol Oxalat]
7 | – | 28% | – | CCCCCCCCCCCCCCCCCCOCC(COC(C)=O)N(C)C (racemic) [Beispiel 1, (±)-2-Dimethylamino-3-octadecyloxy-1-propylacetat · Hydrochlorid]
8 | – | 69% | 11% | CCCCCCCCCCCCCCCCCCOCC(N)CO (racemic) [Beispiel 6, (±)-2-Amino-3-octadecyloxy-1-propanol, reference compound]
